Laboratory results reported in PubChem BioAssay (NCI).
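Five concentrations, 48 hours, 96-well plates. GI50 marks 50% less growth. TGI marks complete inhibition of growth.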

Key:
Assay in all cases: NCI tumour cell line growth inhibition, 48 h
NCI-H226 lung = tested on: NCI-H226 lung
CCRF-CEM leukemia = tested on: CCRF-CEM leukemia
MDA-MB-231 breast = tested on: MDA-MB-231 breast
A549 NSCLC = tested on: A549 NSCLC
UACC-62 melanoma = tested on: UACC-62 melanoma
RPMI-8226 leukemia = tested on: RPMI-8226 leukemia
HOP-62 NSCLC = tested on: HOP-62 NSCLC
DU-145 prostate = tested on: DU-145 prostate
K-562 leukemia = tested on: K-562 leukemia
U251 CNS = tested on: U251 CNS
CAKI-1 renal = tested on: CAKI-1 renal
RXF 393 renal = tested on: RXF 393 renal
SNB-19 CNS = tested on: SNB-19 CNS
MDA-MB-468 breast = tested on: MDA-MB-468 breast
IGROV1 ovarian = tested on: IGROV1 ovarian
UO-31 renal = tested on: UO-31 renal
M14 melanoma = tested on: M14 melanoma
SR leukemia = tested on: SR leukemia
COLO 205 colon = tested on: COLO 205 colon
MOLT-4 leukemia = tested on: MOLT-4 leukemia
HCT-116 colon = tested on: HCT-116 colon
PC-3 prostate = tested on: PC-3 prostate
NCI/ADR-RES ovarian = tested on: NCI/ADR-RES ovarian
UACC-257 melanoma = tested on: UACC-257 melanoma
786-0 renal = tested on: 786-0 renal
HS 578T breast = tested on: HS 578T breast
NCI-H522 lung = tested on: NCI-H522 lung
HCT-15 colon = tested on: HCT-15 colon
MDA-MB-435 = tested on: MDA-MB-435
MALME-3M melanoma = tested on: MALME-3M melanoma
A498 renal = tested on: A498 renal
SK-MEL-5 melanoma = tested on: SK-MEL-5 melanoma
SF-268 CNS = tested on: SF-268 CNS
HCC-2998 colon = tested on: HCC-2998 colon
HL-60(TB) leukemia = tested on: HL-60(TB) leukemia
NCI-H460 lung = tested on: NCI-H460 lung
LOX IMVI melanoma = tested on: LOX IMVI melanoma
OVCAR-5 ovarian = tested on: OVCAR-5 ovarian
HOP-92 NSCLC = tested on: HOP-92 NSCLC
OVCAR-4 ovarian = tested on: OVCAR-4 ovarian
BT-549 breast = tested on: BT-549 breast
HT29 colon = tested on: HT29 colon
SNB-75 CNS = tested on: SNB-75 CNS
SF-295 CNS = tested on: SF-295 CNS
OVCAR-3 ovarian = tested on: OVCAR-3 ovarian
SK-OV-3 ovarian = tested on: SK-OV-3 ovarian
MCF7 breast = tested on: MCF7 breast
SF-539 CNS = tested on: SF-539 CNS
TK-10 renal = tested on: TK-10 renal
NCI-H23 lung = tested on: NCI-H23 lung
T-47D breast = tested on: T-47D breast
SK-MEL-2 melanoma = tested on: SK-MEL-2 melanoma
ACHN renal = tested on: ACHN renal
KM12 colon = tested on: KM12 colon
SK-MEL-28 melanoma = tested on: SK-MEL-28 melanoma
OVCAR-8 ovarian = tested on: OVCAR-8 ovarian
SW-620 colon = tested on: SW-620 colon
EKVX NSCLC = tested on: EKVX NSCLC
SN12C renal = tested on: SN12C renal

`C#C[C@]1(O)CC[C@H]2[C@@H]3CC=C4c5sc(Nc6ccc(N(C)C)cc6)nc5CC[C@]4(C)[C@H]3CC[C@@]21C` gave a GI50 (NCI-H226 lung) of 2410 nM, a TGI (NCI-H226 lung) of 10900 nM and a GI50 (CCRF-CEM leukemia) of 812 nM. For the same compound, the TGI (CCRF-CEM leukemia) was over 86600 nM, the GI50 (MDA-MB-231 breast) was 1270 nM and the TGI (MDA-MB-231 breast) was 3330 nM. For the same compound, the GI50 (A549 NSCLC) was 2500 nM, the TGI (A549 NSCLC) was 12500 nM and the GI50 (UACC-62 melanoma) was 1270 nM. For the same compound, the TGI (UACC-62 melanoma) was 3010 nM, the GI50 (RPMI-8226 leukemia) was 248 nM and the TGI (RPMI-8226 leukemia) was 2200 nM. For the same compound, the GI50 (HOP-62 NSCLC) was 1890 nM, the TGI (HOP-62 NSCLC) was 7380 nM and the GI50 (DU-145 prostate) was 2550 nM. It also gave a TGI (DU-145 prostate) of 10800 nM, a GI50 (K-562 leukemia) of 1860 nM and a TGI (K-562 leukemia) of 15800 nM. For the same compound, the GI50 (U251 CNS) was 735 nM, the TGI (U251 CNS) was 4440 nM and the GI50 (CAKI-1 renal) was 1740 nM. The TGI (CAKI-1 renal) was over 23600 nM, the GI50 (RXF 393 renal) was 190 nM and the TGI (RXF 393 renal) was 715 nM. The GI50 (SNB-19 CNS) was 1490 nM, the TGI (SNB-19 CNS) was 6010 nM and the GI50 (MDA-MB-468 breast) was 1510 nM. The TGI (MDA-MB-468 breast) was 4360 nM, the GI50 (IGROV1 ovarian) was 3220 nM and the TGI (IGROV1 ovarian) was 10100 nM. For the same compound, the GI50 (UO-31 renal) was 1500 nM, the TGI (UO-31 renal) was 5210 nM and the GI50 (M14 melanoma) was 1040 nM. For the same compound, the TGI (M14 melanoma) was 4510 nM, the GI50 (SR leukemia) was 567 nM and the TGI (SR leukemia) was 20100 nM. For the same compound, the GI50 (COLO 205 colon) was 2620 nM, the TGI (COLO 205 colon) was 6820 nM and the GI50 (MOLT-4 leukemia) was 374 nM. It also gave a TGI (MOLT-4 leukemia) of 5530 nM, a GI50 (HCT-116 colon) of 1010 nM and a TGI (HCT-116 colon) of 3930 nM. For the same compound, the GI50 (PC-3 prostate) was 999 nM, the TGI (PC-3 prostate) was 9290 nM and the GI50 (NCI/ADR-RES ovarian) was 2540 nM. It also gave a TGI (NCI/ADR-RES ovarian) of 10700 nM, a GI50 (UACC-257 melanoma) of 2010 nM and a TGI (UACC-257 melanoma) of 6690 nM. It also gave a GI50 (786-0 renal) of 647 nM, a TGI (786-0 renal) of 5340 nM and a GI50 (HS 578T breast) of 417 nM. The TGI (HS 578T breast) was 3980 nM, the GI50 (NCI-H522 lung) was 1490 nM and the TGI (NCI-H522 lung) was 3250 nM. The GI50 (HCT-15 colon) was 791 nM, the TGI (HCT-15 colon) was 2670 nM and the GI50 (MDA-MB-435) was 1660 nM. For the same compound, the TGI (MDA-MB-435) was 7370 nM, the GI50 (MALME-3M melanoma) was 858 nM and the TGI (MALME-3M melanoma) was 2900 nM. For the same compound, the GI50 (A498 renal) was 1880 nM, the TGI (A498 renal) was 4180 nM and the GI50 (SK-MEL-5 melanoma) was 1490 nM. It also gave a TGI (SK-MEL-5 melanoma) of 2920 nM, a GI50 (SF-268 CNS) of 1870 nM and a TGI (SF-268 CNS) of 10600 nM. For the same compound, the GI50 (HCC-2998 colon) was 3230 nM, the TGI (HCC-2998 colon) was 7820 nM and the GI50 (HL-60(TB) leukemia) was 2400 nM. For the same compound, the TGI (HL-60(TB) leukemia) was 12300 nM, the GI50 (NCI-H460 lung) was 1440 nM and the TGI (NCI-H460 lung) was 5610 nM. For the same compound, the GI50 (LOX IMVI melanoma) was 923 nM, the TGI (LOX IMVI melanoma) was 2410 nM and the GI50 (OVCAR-5 ovarian) was 2410 nM. The TGI (OVCAR-5 ovarian) was 8220 nM, the GI50 (HOP-92 NSCLC) was 2650 nM and the TGI (HOP-92 NSCLC) was 17800 nM. The GI50 (OVCAR-4 ovarian) was 2540 nM, the GI50 (BT-549 breast) was 642 nM and the TGI (BT-549 breast) was 3070 nM. The GI50 (HT29 colon) was 1660 nM, the TGI (HT29 colon) was 4300 nM and the GI50 (SNB-75 CNS) was 1290 nM. The TGI (SNB-75 CNS) was 6320 nM, the GI50 (SF-295 CNS) was 225 nM and the TGI (SF-295 CNS) was 557 nM. It also gave a GI50 (OVCAR-3 ovarian) of 2300 nM, a TGI (OVCAR-3 ovarian) of 7190 nM and a GI50 (SK-OV-3 ovarian) of 1350 nM. For the same compound, the TGI (SK-OV-3 ovarian) was 3690 nM, the GI50 (MCF7 breast) was 948 nM and the TGI (MCF7 breast) was 4210 nM. The GI50 (SF-539 CNS) was 284 nM, the TGI (SF-539 CNS) was 1250 nM and the GI50 (TK-10 renal) was 7560 nM. The TGI (TK-10 renal) was 33300 nM, the GI50 (NCI-H23 lung) was 1330 nM and the TGI (NCI-H23 lung) was 5140 nM. The GI50 (T-47D breast) was 2640 nM, the TGI (T-47D breast) was 15100 nM and the GI50 (SK-MEL-2 melanoma) was 1460 nM. The TGI (SK-MEL-2 melanoma) was 4320 nM, the GI50 (ACHN renal) was 2240 nM and the TGI (ACHN renal) was 10800 nM. It also gave a GI50 (KM12 colon) of 2150 nM, a TGI (KM12 colon) of 7110 nM and a GI50 (SK-MEL-28 melanoma) of 651 nM. It also gave a TGI (SK-MEL-28 melanoma) of 1880 nM, a GI50 (OVCAR-8 ovarian) of 2990 nM and a TGI (OVCAR-8 ovarian) of 11000 nM. It also gave a GI50 (SW-620 colon) of 1100 nM, a TGI (SW-620 colon) of 3470 nM and a GI50 (EKVX NSCLC) of 1590 nM. For the same compound, the TGI (EKVX NSCLC) was 6490 nM, the GI50 (SN12C renal) was 2630 nM and the TGI (SN12C renal) was 7840 nM.
